This note sets out measurements from patent US8916498B2, “Safening 6-(trisubstituted phenyl)-4-amino-2-pyridinecarboxylate herbicide injury on direct seeded and transplanted paddy rice” (priority 2008, dated 2014).

Several values for one entry are separate records, joined by “and”; a condition that tells them apart may be missing. Identical values can stand only once.

One data set deals with ORYSA (rice). As to the kind of experiment: Postemergence herbicidal safening in direct seeded rice, visual injury. The note with it: for Visual Injury (%) ‘Lemont’ ORYSA Obs / ‘M202’ ORYSA Visual Injury (%) Obs: after 3 weeks. The text has this:
A=observed efficacy of active ingredient A at the same concentration as used in the mixture.
B=observed efficacy of active ingredient B at the same concentration as used in the mixture.

A further data set concerns CYPDI. The experiment in a line: Postemergence herbicidal safening in direct seeded rice, visual injury on weed. Format: in vivo. Particulars: alone, after 3 weeks.
The test system of a further data set is ECHCO. The data set is described as above. Format: in vivo. Particulars: alone, after 3 weeks.
For a further data set, the system named is SEBEX. The description is as above. It counts as in vivo. The note with it: alone, after 3 weeks.
[1] abbreviates: alone, 17.5 g ae/ha, after 3 weeks (Table 14).
[2] abbreviates: alone, 35 g ae/ha, after 3 weeks (Table 14).
Setting [3] is: alone, 8.75 g ae/ha, after 3 weeks (Table 14).
Setting [4] is: No safener, 17.5 g ai/ha, after 3 weeks (Table 12).

Turning to `O=C(C(Cl)Cl)N1CCOC12CCCCC2` [AD67], the “ORYSA Visual Injury (%) ‘Lemont’ Obs” value in the data set with ORYSA (rice) (safener 140 g ai/ha alone) amounted to 0%. Also, the results for the “ORYSA Visual Injury (%) ‘M202’ Obs” value in the data set with ORYSA (rice) (safener 140 g ai/ha alone) and in the data set with ORYSA (rice) (safener 280 g ai/ha alone) were 0% and 15%, respectively.
Consider `CCC(C)OC(=O)COc1ccc(Cl)c2cccnc12` (stereo not shown) [Cloquintocet 1-Methylpropyl Ester], for which the “Visual Injury (%) CYPDI Obs” value in the data set with CYPDI (280 g ae/ha) is 0%. In addition, in the data set with ORYSA (rice) (alone, 280 g ae/ha), the “Visual Injury (%) ‘Lemont’ ORYSA Obs” value is 0%. The “Visual Injury (%) ECHCO Obs” value in the data set with ECHCO (280 g ae/ha) amounted to 0%. In the data set with SEBEX (280 g ae/ha), the “Visual Injury (%) SEBEX Obs” value was found to be 0%.
Regarding `CCOC(=O)COc1ccc(Cl)c2cccnc12` [Cloquintocet Ethyl Ester], in the data set on CYPDI (280 g ae/ha), the “Visual Injury (%) CYPDI Obs” value was determined as 0%. Besides, the “Visual Injury (%) ‘Lemont’ ORYSA Obs” value in the data set with ORYSA (rice) (alone, 280 g ae/ha) worked out at 0%. The “Visual Injury (%) ECHCO Obs” value in the data set on ECHCO (280 g ae/ha) came out at 0%. In addition, in the data set on SEBEX (280 g ae/ha), the “Visual Injury (%) SEBEX Obs” value was determined as 0%.
Regarding `COC(=O)COc1ccc(Cl)c2cccnc12` [Cloquintocet Methyl Ester], in the data set on CYPDI (280 g ae/ha), the “Visual Injury (%) CYPDI Obs” value was 0%. In addition, the “Visual Injury (%) ‘Lemont’ ORYSA Obs” value in the data set with ORYSA (rice) (alone, 280 g ae/ha) came out at 0%. In addition, the “Visual Injury (%) ECHCO Obs” value in the data set on ECHCO (280 g ae/ha) worked out at 0%. In addition, the “Visual Injury (%) SEBEX Obs” value in the data set on SEBEX (280 g ae/ha) was found to be 0%.
For the compound `CC(C)OC(=O)COc1ccc(Cl)c2cccnc12` [Cloquintocet i-Propyl Ester], the “Visual Injury (%) CYPDI Obs” value in the data set on CYPDI (280 g ae/ha) was 0%. In addition, the “Visual Injury (%) ‘Lemont’ ORYSA Obs” value in the data set with ORYSA (rice) (alone, 280 g ae/ha) came to 0%. The “Visual Injury (%) ECHCO Obs” value with ECHCO (280 g ae/ha) is given as 0%. Besides, the “Visual Injury (%) SEBEX Obs” value with SEBEX (280 g ae/ha) is listed as 0%.
`C=CCOC(=O)c1nc(-c2ccc(Cl)c(OC)c2F)cc(N)c1Cl` [Compound 1 Allyl Ester]: in the data set with ORYSA (rice) (setting [1]), the “ORYSA Visual Injury (%) ‘Cheniere’ Obs” value came to 55%, the “ORYSA Visual Injury (%) ‘Clearfield’ Obs” value is 50%, the “ORYSA Visual Injury (%) ‘Cocodrie’ Obs” value is reported as 30% and the “ORYSA Visual Injury (%) ‘Lemont’ Obs” value turned out to be 25%. In addition, in the data set with ORYSA (rice) (setting [1]), the “ORYSA Visual Injury (%) ‘M202’ Obs” value is listed as 55% and the “ORYSA Visual Injury (%) ‘Wells’ Obs” value came to 10%.
In the case of `CCCCOCCOC(=O)c1nc(-c2ccc(Cl)c(OC)c2F)cc(N)c1Cl` [Compound 1 Et butoxy Ester], in the data set with ORYSA (rice) (setting [2]), the “ORYSA Visual Injury (%) ‘Cheniere’ Obs” value is 50%, the “ORYSA Visual Injury (%) ‘Clearfield’ Obs” value is 40%, the “ORYSA Visual Injury (%) ‘Cocodrie’ Obs” value came to 50% and the “ORYSA Visual Injury (%) ‘Lemont’ Obs” value is listed as 50%. In the data set with ORYSA (rice) (setting [2]), the “ORYSA Visual Injury (%) ‘M202’ Obs” value was determined as 30% and the “ORYSA Visual Injury (%) ‘Wells’ Obs” value was determined as 15%.
On to `COc1c(Cl)ccc(-c2cc(N)c(Cl)c(C(=O)[O-])n2)c1F.[K+]` [Compound 1 K^+ Salt], for which, in the data set with ORYSA (rice) (setting [3]), the “ORYSA Visual Injury (%) ‘Cheniere’ Obs” value is given as 50%, the “ORYSA Visual Injury (%) ‘Clearfield’ Obs” value stood at 45%, the “ORYSA Visual Injury (%) ‘Cocodrie’ Obs” value turned out to be 30% and the “ORYSA Visual Injury (%) ‘Lemont’ Obs” value turned out to be 40%. In the data set with ORYSA (rice) (setting [3]), the “ORYSA Visual Injury (%) ‘M202’ Obs” value is 50% and the “ORYSA Visual Injury (%) ‘Wells’ Obs” value came to 0%.
On to `COC(=O)c1nc(-c2ccc(Cl)c(OC)c2F)cc(N)c1Cl` [Compound 1 Methyl Ester], for which the “Visual Injury (%) CYPDI Obs” value in the data set with CYPDI (17.5 g ae/ha), in the data set with CYPDI (35 g ae/ha), in the data set on CYPDI (35 g ai/ha), in the data set on CYPDI (70 g ae/ha) and with CYPDI (70 g ai/ha) was 100% in each case. The “‘M202’ ORYSA Visual Injury (%) Obs” value is 15.0% with ORYSA (rice) (No safener, 17.5 g ai/ha) and 35.0% with ORYSA (rice) (No safener, 35 g ai/ha). Further, the “ORYSA Visual Injury (%) ‘Cheniere’ Obs” value in the data set on ORYSA (rice) (setting [4]) was 20%; in the data set on ORYSA (rice) (setting [1]) it was 85%. The entries for the “ORYSA Visual Injury (%) ‘Cocodrie’ Obs” value with ORYSA (rice) (setting [4]) and with ORYSA (rice) (setting [1]) were 13% and 55%, respectively. The entries for the “ORYSA Visual Injury (%) ‘M202’ Obs” value with ORYSA (rice) (setting [4]) and in the data set with ORYSA (rice) (setting [1]) were 45% and 25%, respectively. The “Visual Injury (%) ‘Lemont’ ORYSA Obs” value in the data set on ORYSA (rice) (alone, 17.5 g ae/ha) was 15%; in the data set with ORYSA (rice) (alone, 35 g ae/ha), 35%; in the data set on ORYSA (rice) (alone, 70 g ae/ha), 45%; in the data set with ORYSA (rice) (alone, 70 g ai/ha) it was 50% and 25%. Further, the “ORYSA Visual Injury (%) ‘Clearfield’ Obs” value in the data set on ORYSA (rice) (setting [1]) is recorded as 45%. The “ORYSA Visual Injury (%) ‘Lemont’ Obs” value with ORYSA (rice) (setting [1]) stood at 40%. Also, the “ORYSA Visual Injury (%) ‘Wells’ Obs” value with ORYSA (rice) (setting [1]) was found to be 10%. Moreover, the “Visual Injury (%) ECHCO Obs” value was 99% in the data set on ECHCO (17.5 g ae/ha); 99% with ECHCO (35 g ae/ha); 95% and 100% in the data set on ECHCO (35 g ai/ha); 100% in the data set with ECHCO (70 g ae/ha); 99% and 100% with ECHCO (70 g ai/ha). Further, the “Visual Injury (%) SEBEX Obs” value in the data set with SEBEX (17.5 g ae/ha), in the data set on SEBEX (35 g ae/ha), with SEBEX (35 g ai/ha), in the data set with SEBEX (70 g ae/ha) and in the data set on SEBEX (70 g ai/ha) was 100% throughout.
